Laboratory results taken from the supplement of paper PMC13207355.

Legend:
Conditions in all cases: exposure time: 72 h
E34 [1] = patient-derived glioblastoma stem cells of proneural subtype; assay: phenotypic distance (Euclidean, principal components) from DMSO controls (arbitrary units); higher = stronger morphological change
E13 [2] = patient-derived glioblastoma stem cells of classical subtype; assay: as above
E31 [3] = patient-derived glioblastoma stem cells of proneural subtype; assay: as above
FT3469 [4] = normal neural stem cell line; assay: as above
E28 [5] = patient-derived glioblastoma stem cells of classical subtype; assay: as above
E57 [6] = patient-derived glioblastoma stem cells of mesenchymal subtype; assay: as above
E21 [7] = patient-derived glioblastoma stem cells of mesenchymal subtype; assay: as above
E34 [8] = assay: surviving fraction (nuclei count normalised to DMSO); higher = more cells surviving (less toxic)
E13 [9] = assay: as above
E31 [10] = assay: as above
FT3469 [11] = assay: as above
E28 [12] = assay: as above
E57 [13] = assay: as above
E21 [14] = assay: as above
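Wherever phenotypic distance (Euclidean, principal components) from DMSO controls is given: cell Painting imaging in 384-well plates, CellProfiler features reduced to at least 20 principal components, Euclidean distance versus same-plate DMSO vehicle wells (0.1% v/v), median over six images per well.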
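Wherever surviving fraction (nuclei count normalised to DMSO) is given: nuclei counted by high-content imaging of Hoechst-stained cells in laminin-coated 384-well plates, relative to 0.1% DMSO vehicle wells, with staurosporine as cell-death control.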

CC(C)(C)C1CCN(C(=O)n2ncc(C(O)(c3ccccc3)c3ccccc3)n2)CC1 [ML211]
Conditions	phenotypic distance	surviving fraction
E13 [2], 4.1 nM	0.844	–
E13 [2], 12.3 nM	0.731	–
E13 [2], 37 nM	0.757	–
E13 [2], 111.1 nM	0.461	–
E13 [2], 333.3 nM	0.703	–
E13 [2], 1000 nM	0.699	–
E13 [2], 3000 nM	0.911	–
E13 [9], 4.1 nM	–	0.909
E13 [9], 12.3 nM	–	0.883
E13 [9], 37 nM	–	0.918
E13 [9], 111.1 nM	–	0.985
E13 [9], 333.3 nM	–	0.984
E13 [9], 1000 nM	–	0.975
E13 [9], 3000 nM	–	0.916
E21 [7], 4.1 nM	0.863	–
E21 [7], 12.3 nM	0.923	–
E21 [7], 37 nM	0.671	–
E21 [7], 111.1 nM	0.652	–
E21 [7], 333.3 nM	0.683	–
E21 [7], 1000 nM	0.885	–
E21 [7], 3000 nM	0.961	–
E21 [14], 4.1 nM	–	0.93
E21 [14], 12.3 nM	–	0.888
E21 [14], 37 nM	–	0.946
E21 [14], 111.1 nM	–	0.8973
E21 [14], 333.3 nM	–	0.973
E21 [14], 1000 nM	–	0.9031
E21 [14], 3000 nM	–	0.889
E28 [5], 4.1 nM	0.935	–
E28 [5], 12.3 nM	0.886	–
E28 [5], 37 nM	0.733	–
E28 [5], 111.1 nM	0.678	–
E28 [5], 333.3 nM	0.596	–
E28 [5], 1000 nM	0.668	–
E28 [5], 3000 nM	1.42	–
E28 [12], 4.1 nM	–	1.09
E28 [12], 12.3 nM	–	1
E28 [12], 37 nM	–	1
E28 [12], 111.1 nM	–	1
E28 [12], 333.3 nM	–	0.987
E28 [12], 1000 nM	–	0.9874
E28 [12], 3000 nM	–	0.883
E31 [3], 4.1 nM	0.563	–
E31 [3], 12.3 nM	0.567	–
E31 [3], 37 nM	0.644	–
E31 [3], 111.1 nM	0.641	–
E31 [3], 333.3 nM	1.05	–
E31 [3], 1000 nM	0.871	–
E31 [3], 3000 nM	1.12	–
E31 [10], 4.1 nM	–	0.9689
E31 [10], 12.3 nM	–	0.979
E31 [10], 37 nM	–	0.993
E31 [10], 111.1 nM	–	0.928
E31 [10], 333.3 nM	–	1.04
E31 [10], 1000 nM	–	0.973
E31 [10], 3000 nM	–	0.823
E34 [1], 4.1 nM	1.21	–
E34 [1], 12.3 nM	0.912	–
E34 [1], 37 nM	1.05	–
E34 [1], 111.1 nM	0.782	–
E34 [1], 333.3 nM	0.763	–
E34 [1], 1000 nM	0.734	–
E34 [1], 3000 nM	0.728	–
E34 [8], 4.1 nM	–	0.956
E34 [8], 12.3 nM	–	0.941
E34 [8], 37 nM	–	0.95
E34 [8], 111.1 nM	–	0.868
E34 [8], 333.3 nM	–	0.976
E34 [8], 1000 nM	–	0.965
E34 [8], 3000 nM	–	0.8932
E57 [6], 4.1 nM	0.588	–
E57 [6], 12.3 nM	0.447	–
E57 [6], 37 nM	0.552	–
E57 [6], 111.1 nM	0.483	–
E57 [6], 333.3 nM	0.642	–
E57 [6], 1000 nM	0.6	–
E57 [6], 3000 nM	0.835	–
E57 [13], 4.1 nM	–	0.995
E57 [13], 12.3 nM	–	1
E57 [13], 37 nM	–	0.9744
E57 [13], 111.1 nM	–	1.02
E57 [13], 333.3 nM	–	0.964
E57 [13], 1000 nM	–	0.974
E57 [13], 3000 nM	–	0.894
FT3469 [4], 4.1 nM	1.1	–
FT3469 [4], 12.3 nM	0.699	–
FT3469 [4], 37 nM	0.637	–
FT3469 [4], 111.1 nM	0.748	–
FT3469 [4], 333.3 nM	0.841	–
FT3469 [4], 1000 nM	1.25	–
FT3469 [4], 3000 nM	1.74	–
FT3469 [11], 4.1 nM	–	0.879
FT3469 [11], 12.3 nM	–	1.008
FT3469 [11], 37 nM	–	0.989
FT3469 [11], 111.1 nM	–	0.934
FT3469 [11], 333.3 nM	–	0.885
FT3469 [11], 1000 nM	–	0.816
FT3469 [11], 3000 nM	–	0.817
